Measurements taken from patent US20250034216A1, “STEREOSELECTIVE COVALENT LIGANDS FOR ONCOGENIC AND IMMUNOLOGICAL PROTEINS” (The Scripps Research Institute, priority 2021, published 2025).

What was measured:
[1] = target: T1, ABCB8_C461 (Homo sapiens, UniProt Q9NUT2); assay: IA-DTB cysteine engagement; format: binding; conditions: 22Rv1 cells, 20 μM probe, 1 h, relative to DMSO
T1 construct: endogenous in cells; host or cells: 22Rv1
T1 sequence (Q9NUT2 26-735): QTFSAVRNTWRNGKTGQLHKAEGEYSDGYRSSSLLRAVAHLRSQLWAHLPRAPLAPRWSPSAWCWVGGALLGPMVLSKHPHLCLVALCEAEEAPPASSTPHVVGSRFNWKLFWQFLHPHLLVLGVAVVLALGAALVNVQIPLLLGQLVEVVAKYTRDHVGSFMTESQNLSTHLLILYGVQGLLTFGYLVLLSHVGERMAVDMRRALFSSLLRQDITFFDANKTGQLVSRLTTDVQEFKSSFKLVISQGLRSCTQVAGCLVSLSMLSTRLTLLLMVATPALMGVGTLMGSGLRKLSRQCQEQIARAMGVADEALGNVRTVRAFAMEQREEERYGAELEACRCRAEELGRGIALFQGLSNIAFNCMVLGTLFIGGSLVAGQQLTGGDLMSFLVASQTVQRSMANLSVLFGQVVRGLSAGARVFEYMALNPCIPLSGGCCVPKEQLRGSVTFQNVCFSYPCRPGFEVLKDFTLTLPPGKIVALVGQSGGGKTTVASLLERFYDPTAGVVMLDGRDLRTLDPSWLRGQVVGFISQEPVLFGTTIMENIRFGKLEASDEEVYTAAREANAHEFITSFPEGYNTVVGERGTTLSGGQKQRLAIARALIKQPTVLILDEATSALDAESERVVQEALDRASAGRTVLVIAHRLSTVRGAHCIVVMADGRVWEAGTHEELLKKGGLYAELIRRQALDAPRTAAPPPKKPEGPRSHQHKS
Outline: (§1)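 Read-out is TMT-based cysteine engagement, expressed as each reporter ion intensity divided by the average of the DMSO channels. Before that, probe-treated cell lysates were capped with IA-DTB, digested, enriched on streptavidin and TMT-tagged. PSMs with DMSO summed intensity <10,000 or DMSO CV >0.5 were excluded.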

[2] = target: T2, DHX9_C608 (Homo sapiens, UniProt Q08211); assay: IA-DTB cysteine engagement; format: binding; conditions: 22Rv1 cells, 20 μM probe, 1 h, relative to DMSO
T2 construct: endogenous in cells; host or cells: 22Rv1
Outline: as §1

T2 sequence (Q08211 whole entry): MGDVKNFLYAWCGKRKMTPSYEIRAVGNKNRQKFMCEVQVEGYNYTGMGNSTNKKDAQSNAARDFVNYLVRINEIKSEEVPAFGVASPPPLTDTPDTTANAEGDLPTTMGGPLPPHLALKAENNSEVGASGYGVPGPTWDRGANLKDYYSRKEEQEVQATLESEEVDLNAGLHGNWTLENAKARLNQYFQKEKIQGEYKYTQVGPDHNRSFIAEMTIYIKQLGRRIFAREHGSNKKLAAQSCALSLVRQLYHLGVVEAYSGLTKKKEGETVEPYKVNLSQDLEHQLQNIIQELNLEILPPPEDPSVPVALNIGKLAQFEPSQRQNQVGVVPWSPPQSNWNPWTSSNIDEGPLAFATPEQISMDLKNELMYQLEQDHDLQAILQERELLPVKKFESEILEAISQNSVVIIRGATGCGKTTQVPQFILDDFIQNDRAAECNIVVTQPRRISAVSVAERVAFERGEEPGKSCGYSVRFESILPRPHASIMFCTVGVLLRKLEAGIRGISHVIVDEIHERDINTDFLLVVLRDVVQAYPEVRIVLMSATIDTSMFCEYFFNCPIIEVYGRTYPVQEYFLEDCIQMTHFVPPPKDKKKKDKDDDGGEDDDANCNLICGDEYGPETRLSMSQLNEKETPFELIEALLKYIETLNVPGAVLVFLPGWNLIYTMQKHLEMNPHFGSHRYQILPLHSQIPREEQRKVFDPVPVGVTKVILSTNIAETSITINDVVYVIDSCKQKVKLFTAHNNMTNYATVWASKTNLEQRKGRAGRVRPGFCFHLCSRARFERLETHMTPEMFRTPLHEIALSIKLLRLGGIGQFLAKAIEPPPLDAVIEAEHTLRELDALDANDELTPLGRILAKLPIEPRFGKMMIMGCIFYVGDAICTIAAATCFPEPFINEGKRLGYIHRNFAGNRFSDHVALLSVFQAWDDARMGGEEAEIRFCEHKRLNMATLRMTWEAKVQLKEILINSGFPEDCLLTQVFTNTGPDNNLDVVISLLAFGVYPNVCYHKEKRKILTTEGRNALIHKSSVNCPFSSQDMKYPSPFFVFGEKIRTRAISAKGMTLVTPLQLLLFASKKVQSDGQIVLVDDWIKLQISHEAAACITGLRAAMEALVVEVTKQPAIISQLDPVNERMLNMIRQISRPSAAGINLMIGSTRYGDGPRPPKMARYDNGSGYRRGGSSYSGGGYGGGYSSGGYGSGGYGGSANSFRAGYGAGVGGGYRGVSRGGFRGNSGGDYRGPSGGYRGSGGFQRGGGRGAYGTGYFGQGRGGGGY

% engagement ABCB8_C461 [1] [%]	% engagement DHX9_C608 [2] [%]	Structure (SMILES)
66.5	69.5	C=CC(=O)N1C[C@H](c2ccc(Br)cc2)[C@H]1C(=O)Nc1cccc2cccnc12 [MY-3B, (2S,3S)-1-acryloyl-3-(4-bromophenyl)-N-(quinolin-8-yl)azetidine-2-carboxamide]
0	−11	C=CC(=O)N1C[C@H](c2ccc(Br)cc2)[C@@H]1C(=O)Nc1cccc2cccnc12 [MY-1B, (2R,3S)-1-acryloyl-3-(4-bromophenyl)-N-(quinolin-8-yl)azetidine-2-carboxamide]
32.5	16	C=CC(=O)N1C[C@H](c2ccc(Br)cc2)[C@H]1C(=O)Nc1cccc2cccnc12 [MY-3A, (2S,3S)-1-acryloyl-3-(4-bromophenyl)-N-(quinolin-8-yl)azetidine-2-carboxamide]
−3	−10.5	C=CC(=O)N1C[C@@H](c2ccc(Br)cc2)[C@H]1C(=O)Nc1cccc2cccnc12 [MY-1A, (2S,3R)-1-acryloyl-3-(4-bromophenyl)-N-(quinolin-8-yl)azetidine-2-carboxamide]
